Paper PMC10920779, “Targeting P2Y14R protects against necroptosis of intestinal epithelial cells through PKA/CREB/RIPK1 axis in ulcerative colitis” (Nature Communications, 2024)
Values joined by “and” are separate entries in the source; they are usually repeats but may differ in a detail not shown here. Equal values may be shown once.

What was measured:
Format in all cases: in vivo, mouse
[1] = tested on: DSS-induced colitis in mice; experiment: DSS-induced acute colitis in WT mice, P2Y14R antagonist treatment (body weight, DAI, colon length, H&E, tight junction staining, TEM); design: DAI: scale not given here
Text: (§1) Male, 7-8-week-old, P2Y14R^fl/fl Vil-cre (P2Y14R^∆IEC), P2Y14R^fl/fl Lyz2-cre and WT mice with C57BL/6 J background were used to establish experimental (acute) colitis model. P2Y14R^fl/fl C57BL/6 J mice were used as control for P2Y14R^fl/fl Vil-cre (P2Y14R^∆IEC) and P2Y14R^fl/fl Lyz2-cre mice. WT C57BL/6 J mice were used for the pharmacological study of HDL-16. Colitis was induced by dextran sodium sulfate (DSS; 36-50 kDa; 3% w/v; MP Biomedicals, Solon, Ohio, USA), added to the drinking water ad libitum for 7 days. Control mice received standard drinking water. The Disease Activity Index (DAI) was evaluated daily as described previously. After 7 days of DSS treatment, mice were euthanized by carbon dioxide inhalation and the colons were measured and then processed for histological analyses, homogenized to extract protein or RNA.
The DSS group and the P2Y14R^△IEC + DSS group were rectally administered with 100 μl vehicle (saline with 0.1% DMSO). The low-dose group of mice was given 10 μM HDL-16, 100 μl per mouse, while the high-dose group was given 20 μM HDL-16, 100 μl per mouse.
For TEM, harvest fresh tissue blocks quickly within 1-3 minutes. […] Then tissues avoid light post fixed in 1% OsO4 in PBS for 2 h at room temperature. […] The samples were moved into a 65°C oven to polymerize for more than 48 h. Ultrathin sections were cut to 60-80 nm thin with an ultramicrotome UCT6 (Leica Microsystems, Vienna) and placed on 150 meshes cuprum grids (formvar carbon coated Cu grids) with formvar film. […] Micrographs were obtained with a Jeol JEM 1400 plus electron microscope (Jeol, USA) operating at 80 kV.
For histological assessment of colitis, colon specimens were fixed in 4% paraformaldehyde (PFA) and embedded in paraffin. Five-micrometer tissue sections were stained with H&E and examined for evidence of colitis as described previously. After the paraffin sections conventional dewaxing to water, put the sections into Hematoxylin solution for 3-5 min and treat the sections with Hematoxylin Differentiation solution. […] Finally, dehydrated the sections with gradient alcohol and xylene, and sealed with neutral gum. Images were captured with a microscope (BX53, Olympus).
Immunofluorescence staining was performed using paraffin-embedded tissues as mentioned before. For immunofluorescence, the paraffin slides were deparaffinized, rehydrated, blocked and treated according to a standard protocol. […] All slides were incubated with DAPI (S2110, Solarbio) for 10 min to show the location of the nucleus. Images were captured with a confocal microscope (LSM 800, Zeiss).

mucosal barrier function = experiment: Intestinal permeability, serum FITC-dextran in DSS-treated mice
Procedure: The mice treated with DSS for 7 days were fasted for 6 h, given FITC-dextran (3-5 kDa, FD4, sigma) intragastrically at a dose of 60 mg kg^−1. After 3 h, hemolysis-free sera were collected and the fluorescence intensity of serum was read by a multi-mode microplate reader (excitation, 488 nm; emission, 520 nm).

[2] = tested on: CREB binding to Ripk1 promoter; experiment: ChIP-qPCR with anti-CREB on Ripk1 gene promoter in IECs of experimental colitis mice
Procedure: Total RNA was extracted from cells or colonic tissues using Trizol (Thermo) under the manufacturer’s instructions. First strand cDNA was synthesized using the PrimeScript RT Reagent Kit (480, Abm). SYBR Green Master Mix reagents (Q331-02, Vazyme) and primer mixtures (Table S1) were used for the real-time PCR. The ChIP assays were performed using EZ ChIP kit (17-371, Millipore). The procedure was as described in the kit provided by the manufacturer. Briefly, isolated IECs were fixed by 1% formaldehyde, and fragmented by sonication. CREB was then used for immunoprecipitation. After washing and reverse-crosslinking, the precipitated DNA was amplified by primers and quantified by the qPCR. Primer sequences can be found in Supplementary Table 1.

[3] = tested on: DSS-induced colitis in P2Y14R△IEC mice; experiment: DSS-induced colitis in P2Y14R△IEC mice treated with HDL-16 or PPTN
Text: as §1
The DSS group and the P2Y14R^△IEC + DSS group were rectally administered with 100 μl vehicle (saline with 0.1% DMSO). The low-dose group of mice was given 10 μM HDL-16, 100 μl per mouse, while the high-dose group was given 20 μM HDL-16, 100 μl per mouse. […]
immunoblotting with corresponding antibodies in the IECs from DSS treated mice with HDL-16 or […]
the entire experimental period. d Body weight change and disease activity index evaluation of mice change during the disease process (n = 6 mice per group). e Effects of P2Y14R antagonists on P2Y14R△IEC mice mucosal barrier function as measured by serum levels of FITC-dextran based on intestinal permeability methods (n = 6 mice per group). f The length of colons from mice 7 days after DSS treatment (n = 6 mice per group). g The H&E staining in the colon tissues of DSS-treated mice (Scale bar = 200 μm). h The immunofluorescent images of colon tissues stained with Claudin-1, Occludin and ZO-1, the principal components of tight junction (Scale bar = 200 μm). i Phosphorylation MLKL as well as its protein levels were analyzed by immunoblotting with corresponding antibodies in colon tissues (n = 5 mice per group). The data represent the mean ± SD for b, e, f and i, the data represent the mean ± SEM for d. The p-values were determined by One-way analysis of variance (ANOVA) with Tukey multiple comparison test for e, f, i, and two-way analysis of variance (ANOVA) with Šídák's multiple comparisons test for b and d. For a, g and h, […]

[4] = high-dose, 20 μM, 100 μl per mouse
[5] = P2Y14R△IEC mice + DSS + PPTN, individual mice, supplement Figure 4e

Q: With `O=C(O)c1cc(-c2ccc(C3CCNCC3)cc2)c2ccc(-c3ccc(C(F)(F)F)cc3)cc2c1` [PPTN, reference compound] as the molecule, how does the DAI ([1]; DSS-treated mice, Day 1) read?
A: 0

Q: What about the “Weight (%)” value ([1]; DSS-treated mice, Day 1) of the same molecule?
A: 101.124% and 106.742% and 95.5056%

Q: And the “Weight (%)” value ([1]; DSS-treated mice, Day 2)?
A: 101.124% and 106.742% and 95.5056%

Q: What about the “Weight (%)” value ([1]; DSS-treated mice, Day 3) of the same molecule?
A: 95.5056% and 106.742%

Q: And the “Weight (%)” value ([1]; DSS-treated mice, Day 4)?
A: 89.8876% and 101.124% and 95.5056%

Q: What about the “Weight (%)” value ([1]; DSS-treated mice, Day 5) of the same molecule?
A: 89.8876% and 101.124% and 84.2697% and 95.5056%

Q: And the “Weight (%)” value ([1]; DSS-treated mice, Day 6)?
A: 84.2697% and 95.5056% and 89.8876%

Q: What about the “Weight (%)” value ([1]; DSS-treated mice, Day 7) of the same molecule?
A: 89.8876% and 95.5056% and 84.2697%

Q: And the “Colon length (cm)” value ([1]; DSS-treated mice, Figure 7c)?
A: 6.3 cm and 7.4 cm and 5.5 cm and 5.9 cm and 6.7 cm and 7.1 cm

Q: What about the Colitis symptoms ([1]; daily treatment, 3% DSS mice) of the same molecule?
A: significantly suppressed colitis symptoms

Q: And the “H&E staining: inflammatory infiltration and tissue damage” value [1, 4]?
A: improved DSS-induced inflammatory infiltration and tissue damage

Q: What about the “Tight junction protein expression (immunofluorescence)” value [1, 4] of the same molecule?
A: stabilized the expression of tight junction protein Claudin-1, Occludin and ZO-1

Q: What about the “Body weight loss and DAI vs DSS-exposed mice” value ([1]; high-dose, 20 μM, 100 μl per mouse, rectal, daily, 3% DSS 7 days) of the same molecule?
A: dramatically less body weight loss and lower DAI

Q: What about the “Colon length vs mice treated with DSS only” value ([1]; high-dose, 20 μM, 100 μl per mouse, rectal, 3% DSS 7 days) of the same molecule?
A: significantly longer

Q: And the “CON(ug/ml), serum FITC-dextran” value (mucosal barrier function; DSS-treated mice, Figure 7e)?
A: 12.4177 µg/mL and 12.0055 µg/mL and 12.4453 µg/mL and 11.0788 µg/mL and 9.474 µg/mL and 9.103 µg/mL

Q: What about the CON (mucosal barrier function; [5]) of the same molecule?
A: 6.506 µg/mL and 7.571 µg/mL and 6.5332 µg/mL and 6.645 µg/mL and 6.518 µg/mL and 7.625 µg/mL

Q: And the Serum fluorescence intensity (mucosal barrier function; [5])?
A: 5968551 and 6689623 and 5987216 and 6062672 and 5977001 and 6726135

Q: And the “CREB binding Ripk1 promoter” value ([2]; DSS-treated mice, Figure 7j)?
A: 59.41% and 55.99% and 63.77%

Q: What about the “Binding between CREB and Ripk1 promoter (ChIP)” value ([2]; IECs of DSS-induced colitis mice) of the same molecule?
A: promoted the binding between CREB and Ripk1 promoter

Q: And the “Weight loss, diarrhea, rectal bleeding, mucosal barrier injury, inflammatory cell infiltration in P2Y14R△IEC mice” value ([3]; DSS-fed P2Y14R△IEC mice)?
A: did not influence DSS-fed induced weight loss

Q: And the “p-MLKL in P2Y14R△IEC mice (western blot)” value ([3]; DSS-fed P2Y14R△IEC mice, colon tissues)?
A: did not affect DSS-induced upregulation of p-MLKL

Q: And the Colon length ([3]; P2Y14R fl/fl vil-cre mice + DSS + PPTN, individual mice)?
A: 7 cm and 5.4 cm and 6.3 cm and 5.6 cm and 5.8 cm and 6 cm

Q: And the “Improvement of DSS colitis in P2Y14R△IEC mice” value ([3]; daily administration, DSS feeding P2Y14R△IEC mice)?
A: barely improvement
